Experiments:
CVB3-H3 = assay: Plaque reduction assay, CVB3-H3 in HeLa-RW cells; type: cell-based, coxsackievirus B3; settings: compound added 30 min before infection, CVB3-H3 MOI 1, HeLa-RW, 6 hours; log10(titer with DMSO only/titer with inhibitor)
[1] = system: eGFP-expressing recombinant CVB3; type: cell-based, coxsackievirus B3; settings: eGFP-CVB3 m.o.i=1, compound added at time of infection, 6 hr post infection; 1-(% eGFP+ cells with compound/% with DMSO only); note: test concentration or dose not given here

Row | Compound | Log10 reduction of virus titer (CVB3-H3) | Inhibition of infected cells [1] [%]
1 | O=C(N/N=C/c1ccc(O)cc1)c1cc(-c2ccccc2)nc2ccccc12 [Compound 29, N′-[(E)-(4-Hydroxyphenyl)methylene]-2-phenyl-4-quinoline-carbohydrazide] | 3.8 | 100
2 | CCS(=O)(=O)c1ccc(NC(=O)c2cc(-c3ccccc3)nc3ccccc23)cc1 [Compound 27, N-[4-(Ethylsulfonyl)phenyl]-2-phenyl-4-quinoline-carboxamide] | 3.4 | 89.6
3 | CC(C)n1ncc2c(C(=O)Nc3ccc(F)cc3Cl)cc(-c3cccs3)nc21 [Compound 6, N-(2-Chloro-4-fluorophenyl)-1-isopropyl-6-(2-thienyl)-1H-pyrazolo[3,4-b] pyridine-4-carboxamide] | 4.3 | 99.5
4 | CC(C)n1ncc2c(C(=O)Nc3cccc(-c4nnc5n4CCCCC5)c3)cc(C3CC3)nc21 [Compound 14, 6-Cyclopropyl-1-isopropyl-N-[3-(6,7,8,9-tetrahydro-5H-[1,2,4]triazolo [4,3-a]azepin-3-yl)phenyl]-1H-pyrazolo [3,4-b]pyridine-4-carboxamide] | 3.3 | 100
5 | Cl.Cl.OCCN1CCN(CC/C=C2/c3ccccc3Sc3ccc(C(F)(F)F)cc32)CC1 [Compound 70, 2-(4-{(3Z)-3-[2-(Trifluoromethyl)-9H-thioxanthen-9-ylidene]propyl}-1-piperazinyl)ethanol dihydrochloride, reference compound] | 3.9 | 99.6
6 | COc1ccc(-c2csc3ncn(CC(=O)c4ccc5c(c4)OCO5)c(=O)c23)cc1OC [Compound 54, 3-[2-(1,3-Benzodioxol-5-yl)-2-oxoethyl]-5-(3,4-dimethoxyphenyl) thieno[2,3-d]pyrimidin-4 (3H)-one] | 3.2 | 87.6
7 | Cc1ccc(F)cc1NC(=O)c1cc(-c2cccs2)nc2c1cnn2C(C)C [Compound 2, N-(5-Fluoro-2-methylphenyl)-1-isopropyl-6-(2-thienyl)-1H-pyrazolo[3,4-b] pyridine-4-carboxamide] | 4.4 | 99.6
8 | NC(=O)C1CCN(CC(=O)N2N=C3/C(=C/c4cccs4)CCCC3C2c2cccs2)CC1 (stereo not drawn) [Compound 63, 1-{2-Oxo-2-[(7E)-3-(2-thienyl)-7-(2-thienylmethylene)-3,3a,4,5,6,7-hexahydro-2H-indazol-2-yl]ethyl}-4-piperidine-carboxamide] | 4.2 | 100
9 | CC/C(C)=N\NC(=O)c1cc(-c2cccs2)nc2ccccc12 [Compound 24, N′-[(2Z)-2-Butanylidene]-2-(2-thienyl)-4-quinoline-carbohydrazide] | 4.0 | 100
10 | NC1=Nc2nc3ccccc3n2C(c2ccc3ccccc3c2)N1 (stereo not drawn) [Compound 67, 4-(2-Naphthyl)-1,4-dihydro[1,3,5] triazino[1,2-a]benzimidazol-2-amine] | 1.9 | 67.7
11 | CC1Oc2ccc(NC(=O)c3cc(C4CC4)nc4c3cnn4C(C)C)cc2NC1=O (stereo not drawn) [Compound 13, 6-Cyclopropyl-1-isopropyl-N-(2-methyl-3-oxo-3,4-dihydro-2H-1,4-benzoxazin-6-yl)-1H-pyrazolo [3,4-b]pyridine-4-carboxamide] | 4.2 | 100
12 | Cc1ccc(NC(=O)c2cc(-c3cccs3)nc3c2cnn3C(C)C)c(F)c1 [Compound 5, N-(2-Fluoro-4-methylphenyl)-1-isopropyl-6-(2-thienyl)-1H-pyrazolo[3,4-b] pyridine-4-carboxamide] | 4.4 | 99.3
13 | COc1ccc(NC(=O)c2nn(Cc3ccccc3)c(=O)c3ccccc23)cn1 [Compound 64, 3-Benzyl-N-(6-methoxy-3-pyridinyl)-4-oxo-3,4-dihydro-1-phthalazine-carboxamide] | 4.2 | 100
14 | Cc1ccc([S+]([O-])Nc2cccc(C(=O)O)c2)cc1 (stereo not drawn) [Compound 55, 3-{[(4-Methylphenyl)sulfinyl]amino} benzoic acid] | 2.5 | 98.4
15 | CCn1ncc2c(C(=O)Nc3ccc(C)c(S(N)(=O)=O)c3)cc(-c3cccs3)nc21 [Compound 19, 1-Ethyl-N-(4-methyl-3-sulfamoylphenyl)-6-(2-thienyl)-1H-pyrazolo[3,4-b] pyridine-4-carboxamide] | 4.3 | 100
16 | O=C(CCCc1nc(-c2ccccc2)no1)N1CCN(C2CCCCC2)C(=O)C1 [Compound 69, 1-Cyclohexyl-4-[4-(3-phenyl-1,2,4-oxadiazol-5-yl)butanoyl]-2-piperazinone] | 2.0 | 96.5
17 | Cc1ccc(NC(=O)c2cc(-c3cccs3)nc3c2cnn3C(C)C)cc1S(N)(=O)=O [Compound 9, 1-Isopropyl-N-(4-methyl-3-sulfamoylphenyl)-6-(2-thienyl)-1H-pyrazolo[3,4-b] pyridine-4-carboxamide] | 4.5 | 100
18 | OC(c1ccccc1)c1nc2ccccc2n1-c1ccccc1 (stereo not drawn) [Compound 41, Phenyl(1-phenyl-1H-benzimidazol-2-yl)methanol] | 4.1 | 100
19 | c1ccc2[nH]c(CN3CCCC3)nc2c1 [Compound 40, 2-(1-Pyrrolidinylmethyl)-1H-benzimidazole] | 4.0 | 100
20 | COc1ccc(CCC2CCN(Cc3cc(=O)n4ccccc4n3)CC2)cc1 [Compound 52, 2-({4-[2-(4-Methoxyphenyl)ethyl]-1-piperidinyl}methyl)-4H-pyrido[1,2-a]pyrimidin-4-one] | 0.0 | 57.7
21 | O=C(Nc1nc(CN2CCOCC2)cs1)c1cc(-c2ccc(Cl)s2)nc2ccccc12 [Compound 34, 2-(5-Chloro-2-thienyl)-N-[4-(4-morpholinylmethyl)-1,3-thiazol-2-yl]-4-quinoline-carboxamide] | 3.5 | 94.4
22 | CS(=O)(=O)c1ccc(NC(=O)c2cc(-c3ccc(F)cc3)nc3ccccc23)cc1 [Compound 28, 2-(4-Fluorophenyl)-N-[4-(methylsulfonyl)phenyl]-4-quinolinecarboxamide] | 4.5 | 99.6
23 | COc1ccc(-c2nc(C)c(C(=O)Nc3cccc(-c4nnc5n4CCCCC5)c3)s2)cc1 [Compound 61, 2-(4-Methoxyphenyl)-4-methyl-N-[3-(6,7,8,9-tetrahydro-5H-[1,2,4]triazolo [4,3-a]azepin-3-yl)phenyl]-1,3-thiazole-5-carboxamide] | 1.8 | 96.0
24 | CC(=O)c1c(C)nc2ccc(Cl)cc2c1-c1ccccc1 [Compound 31, 1-(6-Chloro-2-methyl-4-phenyl-3-quinolinyl)ethanone] | 3.8 | 94.5

— US20150164910A1, “ANTIVIRAL COMPOUNDS AND METHODS OF USE” (The Regents of the University of Califonia, priority 2012, published 2015)
